This passage reports ED50 results from patent US10668079B2, “Composition composed of ceftriaxone sodium and sulbactum sodium” (XIANGBEI WELMAN PHARMACEUTICAL CO., LTD., priority 2016, dated 2020).

Counter-ions that a name gives are not always drawn.

What all share (experiment): In vivo antibacterial test (animal protection test, septicemia mouse model)
The subject of assay [1] is ATCC43069 (Neisseria gonorrhoeae). Conditions: ATCC43069, sc, ICR mice. On the procedure: (§1) The stability test samples in test example 1 were sampled at 0th month and subjected to in vivo antibacterial test; and the stability test samples were sampled at 30th month again, and subjected to in vivo antibacterial test. The in vivo antibacterial tests were performed according to the following method.
(§2) Test Samples: Compositions I to VIII, Sterile Powder for Injection I, Sterile Powder for Injection II, Sterile Powder for Injection IV, Lyophilized Powder for Injection I, Lyophilized Powder for Injection II, Lyophilized Powder for Injection A, Sterile Powder for Injection A and Sterile Powder for Injection B, all of which were obtained from the test example 1 at 0th and 30th month; and control drugs: ceftriaxone sodium, levofloxacin hydrochloride, azithromycin, doxycycline hydrochloride and spectinomycin hydrochloride, wherein, a batch of the control drugs were purchased at 0th month of the stability test so as to match with the test samples at 0th month, and another batch of control drugs were purchased at 30th month of the stability test so as to match with the test samples at 30th month, and the time when the two batches were purchased was within one month from the date of their production.
(§3) Animals: ICR mice weighed 18-22 g, half male and half female.
(§4) Strains: ATCC700603 (Klebsiella pneumoniae), ATCC43069 (Neisseria gonorrhoeae), Q-R (quinolone-resistant Neisseria gonorrhoeae), T-R (tetracycline-resistant Neisseria gonorrhoeae), PP-R (β-lactam-resistant Neisseria gonorrhoeae), MAC-R (macrolide-resistant Neisseria gonorrhoeae), SPE-R (spectinomycin-resistant Neisseria gonorrhoeae) and QS-R (ceftriaxone-resistant Neisseria gonorrhoeae), wherein, ATCC700603, and ATCC43069 were purchased from ATCC; QS-R was prepared by in vitro inducing Neisseria gonorrhoeae, which was sensitive to ceftriaxone, with a subinhibitory concentration of ceftriaxone, culturing at 36° C., 5% CO2, passaging once every 24 hours, and then transferring to a higher concentration of ceftriaxone on GC medium until the strain was resistant to ceftriaxone; and other strains were clinical isolates.
(§5) Aseptic thoracotomy was performed timely on the mice died of infection, the heart blood or intracavity effusion was taken and evenly coated on corresponding agar plates, and incubated for 18 hours at 37° C. […] The obtained strain was used to infect mice again.
(§6) After infection, the number of dead mice was recorded. The minimum dose causing 100% death of mice was 1 MLD, and was used as the dose in animal protection experiments. The bacterial concentration, which was one log lower than 1 MLD and infected the animals without mortality, was named 0.1 MLD. In experiments, a bacteria concentration of 1 MLD was used as the positive control for the infection experiments; and a bacteria concentration of 0.1 MLD was used as the negative control for the infection. In both positive and negative control groups, only the bacteria were administrated and no antibiotic treatment was provided. The mortality of the positive group should be 70% or more, and the mortality of the negative group should be 30% or less.
(§7) When the administration dosage was investigated first, there may be relatively great differences between the dose concentrations of the groups. When the range of the administration dosage was determined, it may be further investigated by reducing the differences until the suitable administration dosage (that is, for the group administrated with the highest concentration, 70% or more infected animals survived; and for the group administrated with the lowest concentration, no less than 70% of infected animals died) was found.

The subject of assay [2] is MAC-R (macrolide-resistant Neisseria gonorrhoeae). Conditions: sc, strain MAC-R, ICR mice. As to the method: as §1, §2, §3, §4, §5, §6, §7
Assay [3] relates to PP-R (β-lactam-resistant Neisseria gonorrhoeae). The settings on record: sc, strain PP-R, ICR mice. On the procedure:
as §1, §2, §3, §4, §5, §6, §7

For assay [4], the system named is Q-R (quinolone-resistant Neisseria gonorrhoeae). The settings on record: sc, strain Q-R, ICR mice. As to the method: as §1, §2, §3, §4, §5, §6, §7
Assay [5] concerns QS-R (ceftriaxone-resistant Neisseria gonorrhoeae). Conditions: sc, strain QS-R, ICR mice. On the procedure:
as §1, §2, §3, §4, §5, §6, §7

Assay [6] relates to SPE-R (spectinomycin-resistant Neisseria gonorrhoeae). Conditions: sc, strain SPE-R, ICR mice. On the procedure: as §1, §2, §3, §4, §5, §6, §7
The test system of assay [7] is T-R (tetracycline-resistant Neisseria gonorrhoeae). Conditions: sc, strain T-R, ICR mice. As to the method: as §1, §2, §3, §4, §5, §6, §7
The test system of assay [8] is ATCC700603 (Klebsiella pneumoniae). The settings on record: ATCC700603, sc, ICR mice. On the procedure: as §1, §2, §3, §4, §5, §6, §7
[9] abbreviates: strain ATCC 43069, samples at 0th month of the stability test, subcutaneous immediately and after 6 hours, 7 days observation.
The mark [10] stands for this setting: strain ATCC 43069, samples at 30th month of the stability test (control drugs: batch purchased at 30th month), subcutaneous.
Where [11] appears, read: samples at 0th month of the stability test, subcutaneous immediately and after 6 hours, 7 days observation.
Setting [12] is: samples at 30th month of the stability test (control drugs: batch purchased at 30th month), subcutaneous.

Broadly, the ED50 is the midpoint of the dose-response relation. High values mean a need for a large dose, low ones an effect at a small dose. On to `CC[C@H]1OC(=O)[C@H](C)[C@@H](O[C@H]2C[C@@](C)(OC)[C@@H](O)[C@H](C)O2)[C@H](C)[C@@H](O[C@@H]2O[C@H](C)C[C@H](N(C)C)[C@H]2O)[C@](C)(O)C[C@@H](C)CN(C)[C@H](C)[C@@H](O)[C@]1(C)O` [Azithromycin, azithromycin], for which the ED50 in assay [1] (setting [9]) worked out at 24 mg/kg; in assay [1] (setting [10]), 31 mg/kg; in assay [2] (setting [11]), 487 mg/kg; in assay [2] (setting [12]), 497 mg/kg; in assay [3] (setting [11]), 49 mg/kg; in assay [3] (setting [12]), 55 mg/kg. Moreover, the ED50 in assay [4] (setting [11]) came out at 43 mg/kg; in assay [4] (setting [12]), 40 mg/kg; in assay [5] (setting [11]), 63 mg/kg; in assay [5] (setting [12]), 69 mg/kg; in assay [6] (setting [11]) it was 59 mg/kg; in assay [6] (setting [12]), 65 mg/kg. Further, the figures for the 50% effective dose (ED50) in assay [7] (setting [11]) and in assay [7] (setting [12]) were 62 mg/kg and 59 mg/kg, respectively.

Consider `CO/N=C(\C(=O)N[C@@H]1C(=O)N2C(C(=O)O)=C(CSc3nc(=O)c(=O)[nH]n3C)CS[C@H]12)c1csc(N)n1` [Ceftriaxone Sodium, ceftriaxone sodium], for which the ED50 in assay [1] (setting [9]) is 16 mg/kg; in assay [1] (setting [10]) it was 21 mg/kg; in assay [8] (strain ATCC 700603, samples at 0th month of the stability test, subcutaneous immediately and after 6 hours, 7 days observation) it was 35 mg/kg; in assay [8] (strain ATCC 700603, samples at 30th month of the stability test (control drugs: batch purchased at 30th month), subcutaneous), 37 mg/kg; in assay [2] (setting [11]), 34 mg/kg; in assay [2] (setting [12]), 37 mg/kg. The median effective dose (ED50) in assay [3] (setting [11]) turned out to be 208 mg/kg; in assay [3] (setting [12]), 224 mg/kg; in assay [4] (setting [11]), 31 mg/kg; in assay [4] (setting [12]), 30 mg/kg; in assay [5] (setting [11]) it was 337 mg/kg; in assay [5] (setting [12]) it was 373 mg/kg. For the same molecule, the ED50 in assay [6] (setting [11]) turned out to be 52 mg/kg; in assay [6] (setting [12]) it was 66 mg/kg; in assay [7] (setting [11]), 46 mg/kg; in assay [7] (setting [12]) it was 57 mg/kg.

Consider `C[C@H]1c2cccc(O)c2C(=O)C2=C(O)[C@]3(O)C(=O)C(C(N)=O)=C(O)[C@@H](N(C)C)[C@@H]3[C@@H](O)[C@@H]21` [Doxycycline Hydrochloride, doxycycline hydrochloride], for which the ED50 in assay [1] (setting [9]) stood at 37 mg/kg; in assay [1] (setting [10]), 32 mg/kg; in assay [2] (setting [11]) it was 58 mg/kg; in assay [2] (setting [12]), 62 mg/kg; in assay [3] (setting [11]), 52 mg/kg; in assay [3] (setting [12]), 47 mg/kg. In addition, the ED50 in assay [4] (setting [11]) was determined as 55 mg/kg; in assay [4] (setting [12]) it was 51 mg/kg; in assay [5] (setting [11]), 105 mg/kg; in assay [5] (setting [12]) it was 99 mg/kg; in assay [6] (setting [11]), 52 mg/kg; in assay [6] (setting [12]) it was 51 mg/kg. The figures for the ED50 in assay [7] (setting [11]) and in assay [7] (setting [12]) were 456 mg/kg and 432 mg/kg, respectively.

With `C[C@H]1COc2c(N3CCN(C)CC3)c(F)cc3c(=O)c(C(=O)O)cn1c23` [Levofloxacin Hydrochloride, levofloxacin hydrochloride], the ED50 in assay [1] (setting [9]) was 25 mg/kg; in assay [1] (setting [10]), 30 mg/kg; in assay [2] (setting [11]) it was 36 mg/kg; in assay [2] (setting [12]) it was 41 mg/kg; in assay [3] (setting [11]), 37 mg/kg; in assay [3] (setting [12]) it was 42 mg/kg. Moreover, the ED50 in assay [4] (setting [11]) amounted to 573 mg/kg; in assay [4] (setting [12]), 564 mg/kg; in assay [5] (setting [11]) it was 72 mg/kg; in assay [5] (setting [12]), 82 mg/kg; in assay [6] (setting [11]), 67 mg/kg; in assay [6] (setting [12]), 72 mg/kg. Besides, the figures for the ED50 in assay [7] (setting [11]) and in assay [7] (setting [12]) were 48 mg/kg and 43 mg/kg, respectively.

On to `CN[C@@H]1[C@H](O)[C@H](NC)[C@H]2O[C@@]3(O)C(=O)C[C@@H](C)O[C@H]3O[C@@H]2[C@H]1O` [Spectinomycin Hydrochloride, spectinomycin hydrochloride], for which the ED50 turned out to be 19 mg/kg in assay [1] (setting [9]); 22 mg/kg in assay [1] (setting [10]); 38 mg/kg in assay [2] (setting [11]); 42 mg/kg in assay [2] (setting [12]); 56 mg/kg in assay [3] (setting [11]); 67 mg/kg in assay [3] (setting [12]). In addition, the ED50 in assay [4] (setting [11]) amounted to 40 mg/kg; in assay [4] (setting [12]), 42 mg/kg; in assay [5] (setting [11]), 41 mg/kg; in assay [5] (setting [12]), 56 mg/kg; in assay [6] (setting [11]), 621 mg/kg; in assay [6] (setting [12]), 571 mg/kg. The figures for the median effective dose (ED50) in assay [7] (setting [11]) and in assay [7] (setting [12]) were 61 mg/kg and 68 mg/kg, respectively.
